We go through 13 compounds from patent publication US20240132492A1, “PYRIDOPYRIMIDINE-BASED COMPOUND AND APPLICATION THEREOF” (JINAN UNIVERSITY, priority 2021, published 2024).

Assay type in all cases: cell-based
One assay deals with T1, AKT2 (Homo sapiens, UniProt P31751).
T1 construct: AKT1, AKT2, and AKT3 proteins in H1975-OR cells; endogenous in cells; host or cells: H1975-OR (osimertinib-resistant H1975)
As to the kind of experiment: Western Blot, degradation of AKT2 protein in H1975-OR cells. As to conditions: 24 hours, maximum degradation rate; for Dmax at 1 µM: 1000 nM. As to the method:
(§1) Cell line: Non-small cell lung cancer H1975-OR cell line, which is an Osimertinib resistant H1975 cell line, and could be obtained through low dose gradual addition culture. Specific method: H1975 cells were spread in a 10 cm culture dish at a convergence rate of 60-70%, added 50 nM of Osimertinib to the culture medium. After the cell state stabilized, the concentration of Osimertinib was gradually double to 3 μM.
(§2) Conventional Western Blot (immunoblotting) was used for detection, as follows: a certain number of H1975-OR cells were planted on a 96 well plate, adherent cultured in an incubator overnight, and added a certain concentration of compound to act for 24 hours. 1×SDS lysis buffer with protease and phosphatase inhibitors was used to lyse cells. Cell lysates were separated by SDS-PAGE and transferred to PVDF membrane. Then, at room temperature, the PCDF membrane was taken out and immersed in a sealing solution (5% BSA TBS solution containing 0.5% Tween-20) for sealing treatment for 1 hour, and then incubated with a specific primary antibody at 4° C. overnight. The imprints were washed with TBST and incubated with horseradish peroxidase (HRP) labeled secondary antibodies at room temperature for 2 hours. Finally, ECL plus fluorescence detection reagent (Thermo Scientific, Waltham, MA) was used for protein development, and the Amersham Imager 600 system (GE, America) was used for photography. The detection results were processed using ImageJ software to obtain the grayscale value G (Density).

In a further assay the test system is H1975OR. Put plainly: CCK-8 tumor cell proliferation, H1975OR. The note with it: H1975OR cells (Osimertinib resistant), 72 hours. As to the method: as §1
(§3) Tumor cells (see Table 2 to Table 5) were inoculated in 96-well plates in complete culture medium (2000-3000 cells/well). After overnight incubation, the compounds with different concentrations (0.000508 μM-10 μM) were used to treat the cells separately for 72 hours. CCK-8 (Cell Counting Kit 8, Dojindo Laboratories, Kumamoto, Japan) experiment was used to evaluate cell proliferation. GraphPad Prism 5.0 software (La Jolla, CA) was used to calculate the half-maximal inhibitory concentration (IC50) values by fitting the concentration response curve. Each IC50 value was represented as an average value±SD.

The test system of the next assay is H1975. As to the kind of experiment: CCK-8 tumor cell proliferation, H1975. As to conditions: 72 hours. As to the method:
as §3

The target of the next assay is T2, AKT1 (Homo sapiens, UniProt P31749).
T2 construct: AKT1, AKT2, and AKT3 proteins in H1975-OR cells; endogenous in cells; host or cells: H1975-OR (osimertinib-resistant H1975)
T2 sequence (P31749 whole entry): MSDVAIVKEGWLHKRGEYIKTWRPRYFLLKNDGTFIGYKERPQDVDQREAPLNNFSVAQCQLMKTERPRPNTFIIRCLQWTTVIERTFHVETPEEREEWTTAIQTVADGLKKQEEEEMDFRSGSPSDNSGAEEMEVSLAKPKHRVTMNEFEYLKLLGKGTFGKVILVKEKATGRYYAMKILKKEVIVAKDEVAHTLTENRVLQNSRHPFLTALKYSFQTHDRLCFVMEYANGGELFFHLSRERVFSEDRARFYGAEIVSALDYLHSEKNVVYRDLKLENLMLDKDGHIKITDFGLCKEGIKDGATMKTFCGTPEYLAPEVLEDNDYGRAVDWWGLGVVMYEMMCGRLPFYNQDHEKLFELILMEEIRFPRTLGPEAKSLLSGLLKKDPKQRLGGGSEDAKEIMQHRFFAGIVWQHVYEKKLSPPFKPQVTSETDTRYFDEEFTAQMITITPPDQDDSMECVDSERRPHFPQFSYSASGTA
As to the kind of experiment: Western Blot, degradation of AKT1 protein in H1975-OR cells. The note with it: 24 hours, maximum degradation rate; for Dmax at 1 µM: 1000 nM. Here is the method: as §1, §2

In a further assay the target is AKT3 (Homo sapiens, UniProt Q9Y243). Put plainly: Western Blot, degradation of AKT3 protein in H1975-OR cells. Also noted: endogenous in cells; host or cells: H1975-OR (osimertinib-resistant H1975). The note with it: 24 hours, maximum degradation rate; for Dmax at 1 µM: 1000 nM. Here is the method:
as §1, §2

The mark [1] stands for this setting: Homo sapiens, NCI-H1975, H1975 cells.

AKT3, sequence (Q9Y243 whole entry): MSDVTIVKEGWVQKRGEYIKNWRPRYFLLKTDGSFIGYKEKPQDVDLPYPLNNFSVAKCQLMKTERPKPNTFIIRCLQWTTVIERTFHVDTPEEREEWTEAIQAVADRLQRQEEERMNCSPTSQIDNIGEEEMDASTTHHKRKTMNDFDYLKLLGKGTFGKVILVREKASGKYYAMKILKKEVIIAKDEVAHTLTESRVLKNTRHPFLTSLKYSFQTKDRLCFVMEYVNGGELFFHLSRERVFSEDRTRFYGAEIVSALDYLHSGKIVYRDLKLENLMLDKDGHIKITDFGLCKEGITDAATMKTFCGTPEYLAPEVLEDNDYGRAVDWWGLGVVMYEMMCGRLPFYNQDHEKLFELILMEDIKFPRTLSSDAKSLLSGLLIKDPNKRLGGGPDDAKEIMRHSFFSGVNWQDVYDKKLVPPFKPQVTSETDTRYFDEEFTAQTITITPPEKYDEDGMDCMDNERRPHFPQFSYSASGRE
T1 sequence (P31751 whole entry): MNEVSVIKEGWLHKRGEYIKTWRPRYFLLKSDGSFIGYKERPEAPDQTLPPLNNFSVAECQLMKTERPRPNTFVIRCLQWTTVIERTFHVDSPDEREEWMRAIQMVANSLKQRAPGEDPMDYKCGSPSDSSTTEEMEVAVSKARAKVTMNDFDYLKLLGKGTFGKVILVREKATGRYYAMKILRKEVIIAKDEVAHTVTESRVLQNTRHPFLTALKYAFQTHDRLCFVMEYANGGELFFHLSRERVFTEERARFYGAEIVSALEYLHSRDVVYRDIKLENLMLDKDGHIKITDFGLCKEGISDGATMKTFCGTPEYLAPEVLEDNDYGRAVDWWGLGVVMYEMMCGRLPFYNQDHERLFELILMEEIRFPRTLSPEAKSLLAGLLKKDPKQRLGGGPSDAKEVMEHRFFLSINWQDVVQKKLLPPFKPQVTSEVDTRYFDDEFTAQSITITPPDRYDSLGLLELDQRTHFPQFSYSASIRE

As to `COc1cc(N2CCN(CCCCCCCCCCCCNC(=O)CC34CC5CC(CC(C5)C3)C4)CC2)ccc1Nc1ncc2c(C)cc(=O)n(-c3cccc(NCC4CCC4)c3)c2n1` [ZX-HYT-39, 2-((3R, 5R, 7R)-adamantan-1-yl)-N-(12-(4-(4-((8-(3-((cyclobutylmethyl)amino)phenyl)-5-methyl-7)-oxo-7,8-dihydropyridino [2,3-d]pyrimidin-2-yl)amino)-3-methoxyphenyl)piperazin-1-yl) dodecyl) acetamide], the Dmax at 1 µM at AKT2 was 51%; on AKT1, 0%; at AKT3, 55.3%. The values for the IC50 in the assay on H1975OR and in the assay with H1975 (setting [1]) were 0.0102 ± 0.004 µM and 0.00919 ± 0.00567 µM, respectively.
On the same counts, the results for `COc1cc(N2CCN(CCCCCCCCCCCCNC(=O)CC34CC5CC(CC(C5)C3)C4)CC2)ccc1Nc1ncc2c(C)cc(=O)n(-c3cccc(OCC4CC4)c3)c2n1` [ZX-HYT-40, 2-((3R, 5R, 7R)-adamantan-1-yl)-N-(12-(4-(4-((8-(3-(cyclopropylmethoxy)phenyl)-5-methyl-7-oxo-) 7,8-dihydropyridino [2,3-d]pyrimidin-2-yl)amino)-3-methoxyphenyl)piperazin-1-yl) dodecyl) acetamide] are 30.7%, 32%, 53%, 0.0609 ± 0.014 µM and 0.0864 ± 0.0296 µM.
The like results for `COc1cc(N2CCN(CCCCCCCCCCCCNC(=O)CC34CC5CC(CC(C5)C3)C4)CC2)ccc1Nc1ncc2c(C)cc(=O)n(-c3cccc(N(C)C)c3)c2n1` [ZX-HYT-43, 2-((3R, 5R, 7R)-adamantan-1-yl)-N-(12-(4-(4-((8-(3-(dimethylamino)phenyl)-5-methyl-7-oxy-7,8-dihydropyridino [2,3-d]pyrimidin-2-yl)amino)-3-methoxyphenyl)piperazin-1-yl)dodecyl) acetamide] were, in that order, 30.5%, 57.5%, 37.9%, 0.172 ± 0.0204 µM and 0.257 ± 0.0423 µM.
As for `COc1cc(N2CCN(CCCCCCCCCCCCNC(=O)CC34CC5CC(CC(C5)C3)C4)CC2)ccc1Nc1ncc2c(C)cc(=O)n(-c3cccc(NCC4CNC4)c3)c2n1` [ZX-HYT-44, 2-((3R, 5R, 7R)-adamantan-1-yl)-N-(12-(4-(4-((8-(3-((azacyclobutane-3-ylmethyl)amino)phenyl)-5-methyl-7-oxy-7,8-dihydropyridino [2,3-d]pyrimidin-2-yl)amino)-3-methoxyphenyl)piperazin-1-yl)dodecanyl) acetamide], the Dmax at 1 µM on AKT2 stood at 23.6%; at AKT1, 22.4%; at AKT3, 40.1%. Besides, the values for the IC50 with H1975OR and in the assay with H1975 (setting [1]) were 8.09 ± 0.432 µM and 5.39 ± 0.293 µM, respectively.
On the same counts, the results for `COc1cc(N2CCN(CCCCCCCCCCCCNC(=O)CC34CC5CC(CC(C5)C3)C4)CC2)ccc1Nc1ncc2c(C)cc(=O)n(-c3cccc(NC4CNC4)c3)c2n1` [ZX-HYT-45, 2-((3R, 5R, 7R)-adamantan-1-yl)-N-(12-(4-(4-((8-(3-(azacyclobutane-3-ylamino)phenyl)-5-methyl-7-oxy-7,8-dihydropyridino [2,3-d]pyrimidin-2-yl)amino)-3-methoxyphenyl)piperazin-1-yl)dodecyl) acetamide] are 17.6%, 32.8%, 29.1%, 2.35 ± 0.11 µM and 2.4 ± 0.226 µM.
For the compound `COc1cc(N2CCN(CCCCCCCCNC(=O)CC34CC5CC(CC(C5)C3)C4)CC2)ccc1Nc1ncc2c(C)cc(=O)n(-c3cccc(NC(=O)C4CC4)c3)c2n1` [ZX-HYT-47, N-(3-(2-((4-(4-(8-(2-((3R, 5R, 7R)-adamantan-1-yl)acetylamino)octyl)piperazin-1-yl)-2-methoxyphenyl))amino)-5-methyl-7-oxypyridino [2,3-d]pyrimidin-8 (7H)-yl) phenyl) cyclopropane formamide], the Dmax at 1 µM at AKT2 was 0%; at AKT1, 0%; on AKT3, 67.5%. Moreover, the IC50 was determined as 0.0224 ± 0.0127 µM in the assay with H1975OR and 0.0365 ± 0.0012 µM with H1975 (setting [1]).
For the compound `COc1cc(N2CCN(CCCCCCCCNC(=O)CC34CC5CC(CC(C5)C3)C4)CC2)ccc1Nc1ncc2c(C)cc(=O)n(-c3cccc(NC(=O)C(C)(C)C)c3)c2n1` [ZX-HYT-48, N-(3-(2-((4-(4-(8-(2-((3R, 5R, 7R)-adamantan-1-yl)acetylamino)octyl)piperazin-1-yl)-2-methoxyphenyl))amino)-5-methyl-7-oxypyridino [2,3-d]pyrimidin-8 (7H)-yl) phenyl) neopentanamide], the Dmax at 1 µM at AKT2 is 34.2%; on AKT1, 0%; at AKT3 it was 60.6%. Also, the results for the IC50 with H1975OR and with H1975 (setting [1]) were 0.105 ± 0.052 µM and 0.187 ± 0.0357 µM, respectively.
The like results for `CCC(=O)Nc1cccc(-n2c(=O)cc(C)c3cnc(Nc4ccc(N5CCN(CCCCCCCCNC(=O)CC67CC8CC(CC(C8)C6)C7)CC5)cc4OC)nc32)c1` [ZX-HYT-49, N-(3-(2-((4-(4-(8-(2-((3R, 5R, 7R)-adamantan-1-yl)acetylamino)octyl)piperazin-1-yl)-2-methoxyphenyl))amino)-5-methyl-7-oxypyridino [2,3-d]pyrimidin-8 (7H)-yl) phenyl) propionamide] were, in that order, 26.1%, 0%, 61.6%, 0.0346 µM and 0.0958 ± 0.0126 µM.
On the same counts, the results for `COc1cc(N2CCN(CCCCCCCCNC(=O)C[C@]34CC5C[C@@](C)(C[C@@](C)(C5)C3)C4)CC2)ccc1Nc1ncc2c(C)cc(=O)n(-c3cccc(NC(=O)C4CC4)c3)c2n1` [ZX-HYT-59, N-(3-(2-((4-(4-(8-(2-((1S, 3R, 5S, 7R)-3,5-dimethyladamantan-1-yl)acetamido)octyl)piperazin-1-yl)-2-methoxyphenyl)amino)-5-methyl-7-oxypyridino [2,3-d]pyrimidin-8 (7H)-yl)phenyl) cyclopropanilamide] are 24.7%, 30.3%, 38.9%, 0.0939 ± 0.004 µM and 0.121 ± 0.0449 µM.
On the same counts, the results for `COc1cc(N2CCN(CCCCCCCCNC(=O)C3C[C@H]4C=C[C@@H]3C4)CC2)ccc1Nc1ncc2c(C)cc(=O)n(-c3cccc(NC(=O)C4CC4)c3)c2n1` (some centres unmarked) [ZX-HYT-60] are 0%, 13%, 18.9%, 0.107 ± 0.0194 µM and 0.135 ± 0.0948 µM.
With `COc1cc(N2CCN(CCCCCCCCNC(=O)C3C[C@H]4CC[C@@H]3C4)CC2)ccc1Nc1ncc2c(C)cc(=O)n(-c3cccc(NC(=O)C4CC4)c3)c2n1` (some centres unmarked) [ZX-HYT-61], the figures for the Dmax at 1 µM at AKT2, on AKT1 and at AKT3 were 31.5%, 14.2% and 15.9%, respectively. The IC50 in the assay on H1975OR was determined as 0.103 ± 0.0592 µM; with H1975 (setting [1]) it was 0.0738 ± 0.0456 µM.
For the compound `COc1cc(N2CCN(CCCCCCCCNC(=O)C3CC3)CC2)ccc1Nc1ncc2c(C)cc(=O)n(-c3cccc(NC(=O)C4CC4)c3)c2n1` [ZX-HYT-62], the Dmax at 1 µM at AKT2 came out at 15.1%; at AKT1, 28.4%; at AKT3, 18.8%. The results for the IC50 in the assay with H1975OR and in the assay on H1975 (setting [1]) were 0.0487 ± 0.004 µM and 0.0551 ± 0.0232 µM, respectively.
With “N-(3-(2-((4-(4-(12-((2-((3R, 5R, 7R)-adamantan-1-yl) ethyl) amino) dodecyl) piperazin-1-yl)-2-methoxyphenyl) amino)-5-methyl-7-oxypyrano [2,3-d] pyrimidin-8 (7H)-yl) phenyl) cyclopropane formamide [ZX-HYT-29]”, the “Dmax (%) at 1000 nM AKT2” value on AKT2 is reported as 36.43%. For the same compound, the IC50 worked out at 0.98 ± 0.25 µM in the assay on H1975OR and 0.98 ± 0.21 µM with H1975 (H1975 cells). The “Dmax (%) at 1000 nM AKT1” value at AKT1 is recorded as 57.51%. In addition, the “Dmax (%) at 1000 nM AKT3” value on AKT3 is on record as 54.7%.
